The text below walks through data of ChEMBL document CHEMBL5634077, “Recent advances in 1,2,3- and 1,2,4-triazole hybrids as antimicrobials and their SAR: A critical review” (2023).

Format in all cases: functional
Assay [1] has as its system Bacillus subtilis. Briefly: Antibacterial activity against Bacillus subtilis MTCC 441 assessed as reduction in bacterial growth.
A further assay has as its system Pseudomonas aeruginosa. Briefly: Antibacterial activity against Pseudomonas aeruginosa MTCC 1034 assessed as reduction in bacterial growth.
Assay [2] concerns Candida albicans. The assay is described as follows: Antifungal activity against Candida albicans ATCC 90028 assessed as growth inhibition incubated for 24 hrs.
In another assay the test system is Trichophyton rubrum. The assay is described as follows: Antifungal activity against Trichophyton rubrum assessed as reduction in fungal growth incubated for 5 to 7 days by NCCLS based assay. The settings on record: time 5-7 day.
A further assay deals with Nannizzia gypsea. The assay is described as follows: Antifungal activity against Microsporum gypseum assessed as reduction in fungal growth incubated for 5 to 7 days by NCCLS based assay. As to conditions: time 5-7 day.
The subject of the next assay is Nakaseomyces glabratus. Briefly: Antifungal activity against Candida glabrata 537 assessed as reduction in fungal growth incubated for 72 hrs by NCCLS based assay.
A further assay relates to Aspergillus fumigatus. Briefly: Antifungal activity against Aspergillus fumigatus 7544 assessed as reduction in fungal growth incubated for 5 to 7 days by NCCLS based assay. As to conditions: time 5-7 day.
Assay [3] concerns Candida albicans. The assay is described as follows: Antifungal activity against Candida albicans SC5314 assessed as reduction in fungal growth incubated for 24 hrs by NCCLS based assay.
For assay [4], the system named is Cryptococcus neoformans. The assay is described as follows: Antifungal activity against Cryptococcus neoformans 32609 assessed as reduction in fungal growth incubated for 72 hrs by NCCLS based assay.
Assay [5] relates to Candida albicans. Briefly: Antifungal activity against Candida albicans Y0109 assessed as reduction in fungal growth incubated for 24 hrs by NCCLS based assay.
The subject of assay [6] is Staphylococcus aureus. Briefly: Antibacterial activity against Staphylococcus aureus assessed as diameter of inhibition zone incubated for 24 hrs by well diffusion assay. (In general: A growth-free zone around the sample is the usual read-out of agar diffusion tests.)
The next assay concerns Geotrichum candidum. The assay is described as follows: Antifungal activity against Geotrichum candidum RCMB 052006 assessed as diameter of inhibition zone incubated for 24 hrs by well diffusion assay.
The next assay has as its system Proteus vulgaris. Briefly: Antibacterial activity against Proteus vulgaris RCMB 004 assessed as diameter of inhibition zone incubated for 24 hrs by well diffusion assay.
For assay [7], the system named is Aspergillus flavus. Briefly: Antifungal activity against Aspergillus flavus assessed as diameter of inhibition zone incubated for 24 hrs by well diffusion assay.
Another assay has as its system Escherichia coli. The assay is described as follows: Antibacterial activity against Escherichia coli RCMB 010052 assessed as diameter of inhibition zone incubated for 24 hrs by well diffusion assay.
The subject of assay [8] is Bacillus subtilis. Briefly: Antibacterial activity against Bacillus subtilis RCMB 010069 assessed as diameter of inhibition zone incubated for 24 hrs by well diffusion assay.
Assay [9] relates to Staphylococcus aureus. Briefly: Antibacterial activity against methicillin resistant Staphylococcus aureus incubated for 20 hrs by broth microdilution method.
Assay [10] relates to Staphylococcus aureus. Briefly: Antibacterial activity against Staphylococcus aureus assessed as diameter of inhibition zone.
For assay [11], the system named is Candida albicans. Briefly: Antifungal activity against Candida albicans assessed as fungal growth inhibition by CLSI based method.
Assay [12] has as its system Cryptococcus neoformans. Briefly: Antifungal activity against Cryptococcus neoformans assessed as fungal growth inhibition by CLSI based method.
Assay [13] relates to Candida albicans. The assay is described as follows: Antifungal activity against Candida albicans assessed as inhibition of fungal growth.
Assay [14] deals with Aspergillus flavus. The assay is described as follows: Antifungal activity against Aspergillus flavus assessed as inhibition of fungal growth.
The test system of another assay is Rhizopus. Briefly: Antifungal activity against Rhizopus assessed as inhibition of fungal growth.

Converted amounts (≈) assume the structure as drawn.

As a reminder, the MIC is the smallest concentration in the dilution series that meets the test's criterion for growth inhibition. As usually defined, the MIC80 is the lowest concentration that inhibits either 80% of growth or 80% of the strains tested, depending on the study.

For the molecule `C=CCCC1CC(=O)N1Cc1cn(-c2cccc([N+](=O)[O-])c2)nn1` (stereo not given), the MIC with Bacillus subtilis [1] and with Pseudomonas aeruginosa was 1.25 µg/mL (≈ 3.82 µM) throughout.

`CCCCNC(=O)c1nnn(-c2ccc(C)cc2)c1CCC`: the “growth inhibition (GI)” value in the assay with Candida albicans [2] came to 21.2%.

As to `[N-]=[N+]=Nc1ccc(-n2cc(Cn3c(=O)sc4cc(Br)ccc43)nn2)c(Cl)c1`, the “growth inhibition (GI)” value in the assay with Candida albicans [2] is recorded as 63.7%.

As to `COc1ccc(-c2cc(CO[C@H](C)[C@](O)(Cn3cncn3)c3ccc(F)cc3F)on2)cc1`, the MIC80 in the assay with Trichophyton rubrum turned out to be 1 µg/mL (≈ 2.19 µM); in the assay on Nannizzia gypsea it was 1 µg/mL (≈ 2.19 µM); in the assay on Nakaseomyces glabratus it was 0.5 µg/mL (≈ 1.1 µM); in the assay with Aspergillus fumigatus it was 4 µg/mL (≈ 8.76 µM); in the assay on Candida albicans [3], 0.5 µg/mL (≈ 1.1 µM); in the assay on Cryptococcus neoformans [4] it was 1 µg/mL (≈ 2.19 µM). In addition, in the assay on Candida albicans [5], the MIC80 came out at 0.125 µg/mL (≈ 0.274 µM).

As for `C=CCCC1CC(=O)N1Cc1cn(-c2ccc(OC)cc2)nn1` (stereo not given), the MIC in the assay with Bacillus subtilis [1] and with Pseudomonas aeruginosa was 1.25 µg/mL (≈ 4 µM) throughout.

As for `Cc1c(-c2cc(-c3c[nH]c4ccccc34)nc(S)n2)nnn1-c1ccc(-n2nnc(-c3cc(-c4c[nH]c5ccccc45)nc(S)n3)c2C)cc1`, the “diameter of the inhibition zone (DIZ)” value with Staphylococcus aureus [6] came to 20.6 mm; in the assay with Geotrichum candidum it was 21.1 mm; with Proteus vulgaris, 22.2 mm; with Aspergillus flavus [7], 19.1 mm; with Escherichia coli, 30.9 mm; in the assay on Bacillus subtilis [8] it was 37.8 mm.

For `COc1cc(/C=C/c2ccc(OCc3cn(CCC(=O)O)nn3)cc2)cc(OC)c1`, the MIC in the assay with Staphylococcus aureus [9] amounted to 625 µg/mL (≈ 1530 µM).

On to `CCCCC(=O)c1cc(C(=O)CCCC)cc(-n2cc(C(C)N3C(=O)C(=O)c4ccccc43)nn2)c1` (stereo not given), for which, in the assay on Staphylococcus aureus [10], the “diameter of the inhibition zone (DIZ)” value worked out at 6 mm.

With `CCCNC(=O)c1nnn(-c2ccc(CC)cc2)c1C`, the “growth inhibition (GI)” value in the assay with Candida albicans [2] was 14.1%.

Regarding `C=CCCC1CC(=O)N1Cc1cn(-c2cccc(Cl)c2)nn1` (stereo not given), the minimal inhibitory concentration (MIC) in the assay with Bacillus subtilis [1] and with Pseudomonas aeruginosa was 1.25 µg/mL (≈ 3.95 µM) in each case.

As to `C=CCCC1CC(=O)N1Cc1cn(-c2ccc([N+](=O)[O-])cc2)nn1` (stereo not given), the minimal inhibitory concentration (MIC) in the assay on Bacillus subtilis [1] and in the assay on Pseudomonas aeruginosa was 1.25 µg/mL (≈ 3.82 µM) throughout.

In the case of `O=C(c1ccc(F)cc1)C(Cc1ccccc1)n1cncn1` (stereo not given), the MIC in the assay with Candida albicans [11] and in the assay on Cryptococcus neoformans [12] was 0.5 µg/mL (≈ 1.69 µM) in each case.

Regarding `O=C(c1ccc(Cl)cc1)C(Cc1ccccc1)n1cncn1` (stereo not given), the minimum inhibitory concentration (MIC) with Candida albicans [11] and in the assay with Cryptococcus neoformans [12] was 0.5 µg/mL (≈ 1.6 µM) each time.

For `COCCOCCOCCOCCOC(=O)c1cc(C(=O)OCCOCCOCCOC)cc(-n2cc(CN3C(=O)C(=O)c4ccccc43)nn2)c1`, in the assay on Staphylococcus aureus [10], the “diameter of the inhibition zone (DIZ)” value is given as 12 mm.

As for `Cc1c(-c2cc(-c3c[nH]c4ccccc34)[nH]n2)nnn1-c1ccc(-n2nnc(-c3cc(-c4c[nH]c5ccccc45)[nH]n3)c2C)cc1`, the “diameter of the inhibition zone (DIZ)” value came to 19.3 mm in the assay on Staphylococcus aureus [6]; 23.9 mm in the assay on Geotrichum candidum; 19.2 mm in the assay with Proteus vulgaris; 19.5 mm in the assay with Aspergillus flavus [7]; 28.4 mm with Escherichia coli; 33.5 mm in the assay on Bacillus subtilis [8].

As for `CC(c1cn(-c2cnc(-c3ccccc3)c(-c3ccccc3)n2)nn1)N1C(=O)C(=O)c2ccccc21` (stereo not given), the “diameter of the inhibition zone (DIZ)” value in the assay with Staphylococcus aureus [10] was determined as 6 mm.

In the assay with Staphylococcus aureus [9], `COc1cc(/C=C/c2ccc(OCc3cn(CCCCC(=O)O)nn3)cc2)cc(OC)c1` had an MIC of 78.1 µg/mL (≈ 179 µM).

For the molecule `COc1cc([N+](=O)[O-])c(OC)cc1-n1cc(C(C)N2C(=O)C(=O)c3ccccc32)nn1` (stereo not given), the “diameter of the inhibition zone (DIZ)” value in the assay with Staphylococcus aureus [10] is 9 mm.

In the case of `C[C@@H]1[C@H](O)[C@@H](C)/C=C/C=C/C=C/C=C/C=C/C=C/C=C/[C@H](O[C@@H]2O[C@H](C)[C@@H](O)[C@H](N)[C@@H]2O)C[C@@H]2O[C@](O)(C[C@@H](O)C[C@@H](O)[C@H](O)CC[C@@H](O)C[C@@H](O)CC(=O)O[C@H]1C)C[C@H](O)[C@H]2C(=O)O` [AMPHOTERICIN B], the minimal inhibitory concentration (MIC) in the assay on Candida albicans [13] turned out to be 8 µg/mL (≈ 8.66 µM); in the assay on Aspergillus flavus [14] it was 8 µg/mL (≈ 8.66 µM); in the assay on Rhizopus, 16 µg/mL (≈ 17.3 µM).

With `C[C@@H](c1nc(-c2ccc(C#N)cc2)cs1)[C@](O)(Cn1cncn1)c1ccc(F)cc1F` [RAVUCONAZOLE], the MIC80 in the assay with Trichophyton rubrum came out at 0.125 µg/mL (≈ 0.286 µM); in the assay on Nannizzia gypsea, 1 µg/mL (≈ 2.29 µM); in the assay on Nakaseomyces glabratus it was 0.125 µg/mL (≈ 0.286 µM); in the assay with Aspergillus fumigatus, 2 µg/mL (≈ 4.57 µM); with Candida albicans [3], 0.25 µg/mL (≈ 0.571 µM); in the assay on Cryptococcus neoformans [4], 0.125 µg/mL (≈ 0.286 µM). Besides, the MIC80 in the assay on Candida albicans [5] is 0.062 µg/mL (≈ 0.142 µM).
